Assay results as given in patent US20220024882A1, “NOVEL TUMOR ANTIGEN BINDING AGENTS AND USES THEREOF” (ITM Isotopen Technologien München AG, priority 2018, published 2022).
Where “and” joins values, the source holds several entries; their conditions need not be identical. Equal entries are not always repeated.

Key:
[1] = Whole-body activity measurements, tumor-bearing mice; assay type: in vivo, athymic nude Balb/c mice; conditions: 4 h p.i., 30 MBq, 1 nmol i.v., activity right after injection = 100%
Procedure: (§1) In vivo experiments were approved by the local veterinarian department and conducted in accordance with the Swiss law of animal protection. Mice were obtained from Charles River Laboratories, Sulzfeld, Germany, at the age of 5-6 weeks. Female, athymic nude Balb/c mice were subcutaneously inoculated with PSMA-positive PC-3 PIP cells (6×10^6 cells in 100 μL Hank's balanced salt solution (HBSS) with Ca^2+/Mg^2+) on the right shoulder and with PSMA-negative PC-3 flu cells (5×10^6 cells in 100 μL HBSS Ca^2+/Mg^2+) on the left shoulder. Two weeks later, the tumors reached a size of about 80-300 mm^3 suitable for the performance of the imaging studies.
The single radioligands (specific activity: 30 MBq/nmol) were diluted in 0.9% NaCl containing 0.05% bovine serum albumin (BSA) and i.v. injected into PC-3 PIP/flu tumor bearing mice (30 MBq, 1 nmol, 100 μL) for SPECT/CT imaging purposes. The mice were measured in a dose calibrator at 4 h, 24 h, 48 h and 72 h p.i., respectively.

[2] = test system: PC-3 PIP/flu tumor-bearing mice; assay: Biodistribution study in PC-3 PIP/flu tumor-bearing mice; assay type: in vivo, athymic nude Balb/c mice; conditions: for Kidneys / Tumor-to-kidney / Blood / Bone / Heart / Intestines / Liver / Lung / Muscle / Salivary glands / Spleen / Stomach / Tumor-to-blood / Tumor-to-liver: PC-3 PIP/flu tumor-bearing mice; for PC-3 flu Tumor: PSMA-negative tumor xenograft; for PC-3 flu Tumor / PC-3 PIP Tumor: mice; for PC-3 PIP Tumor: PSMA-positive tumor xenograft
Procedure: as §1, with “biodistribution” for “imaging”
Biodistribution studies were performed 12-15 days after PC-3 PIP/flu tumor cell inoculation. […] The radioligands were injected in a lateral tail vein in a volume of 100-200 μL. Mice were euthanized at different time points after injection (p.i.) of the radioligands. Selected tissues and organs were collected, weighed and measured using a γ-counter. The results were decay-corrected and listed as a percentage of the injected activity per gram of tissue mass (% IA/g) (Table 3 and 4).
Mice were obtained from Charles River Laboratories, Sulzfeld, Germany, at the age of 5-6 weeks. Female, athymic nude BALB/c mice were subcutaneously inoculated with PSMA-positive PC-3 PIP cells (6×10^6 cells in 100 μL Hank's balanced salt solution (HBSS)) on the right shoulder and with PSMA-negative PC-3 flu cells (5×10^6 cells in 100 μL HBSS) on the left shoulder. Two weeks later, the tumors reached a size of about 80-300 mm^3 suitable for the performance of the biodistribution and imaging studies.
Biodistribution studies were performed 12-15 days after PC-3 PIP/flu tumor cell inoculation. ^177Lu-Ibu-sPSMA was diluted in 0.9% NaCl containing 0.05% bovine serum albumin (BSA) to prevent adhesion to the vial and syringe material. The radioligand was injected in a lateral tail vein in a volume of 100 μL. Mice were euthanized at different time points after injection (p.i.) of the radioligand. Selected tissues and organs were collected, weighed and measured using a γ-counter. The results were decay-corrected and listed as a percentage of the injected activity per gram of tissue mass (% IA/g) (Table 6, FIG. 18).

SMILES	whole-body retention of radioactivity [1]	Blood ([2]; 4 h p.i.)	Bone ([2]; 4 h p.i.)	Heart ([2]; 4 h p.i.)	Intestines ([2]; 4 h p.i.)	Kidneys ([2]; 4 h p.i.)	Liver ([2]; 4 h p.i.)	Lung ([2]; 4 h p.i.)	Muscle ([2]; 4 h p.i.)	Salivary glands ([2]; 4 h p.i.)	Spleen ([2]; 4 h p.i.)	Stomach ([2]; 4 h p.i.)	Tumor-to-blood ([2]; 4 h p.i.)	Tumor-to-kidney ([2]; 4 h p.i.)	Tumor-to-liver ([2]; 4 h p.i.)	PC-3 flu Tumor ([2]; 4 h p.i.)	PC-3 PIP Tumor ([2]; 4 h p.i.)	Bone ([2]; 24 h p.i.)	Heart ([2]; 24 h p.i.)	Intestines ([2]; 24 h p.i.)	other results
CC(C)Cc1ccc(C(C)C(=O)NC(CC(=O)O)C(=O)NCCCCC(NC(=O)CN2CCN(CC(=O)O)CCN(CC(=O)O)CCN(CC(=O)O)CC2)C(=O)NCC2CCC(C(=O)NC(Cc3ccc4ccccc4c3)C(=O)NCCCCC(NC(=O)NC(CCC(=O)O)C(=O)O)C(=O)O)CC2)cc1 (stereo not shown) [^177Lu-Ibu-Dα-PSMA, metal not drawn]	29%	2.33 ± 0.71 % IA/g	0.37 ± 0.10 % IA/g	0.89 ± 0.27 % IA/g	0.49 ± 0.08 % IA/g	27.2 ± 3.31 % IA/g	0.84 ± 0.22 % IA/g	1.54 ± 0.35 % IA/g	0.35 ± 0.08 % IA/g	0.74 ± 0.20 % IA/g	0.90 ± 0.04 % IA/g	0.25 ± 0.08 % IA/g	22.5 ± 5.28	1.82 ± 0.03	60.8 ± 11.1	1.00 ± 0.21 % IA/g	49.4 ± 5.33 % IA/g	0.11 ± 0.02 % IA/g	0.18 ± 0.03 % IA/g	0.11 ± 0.02 % IA/g	Kidneys ([2]; 1 h p.i.): 73±2 % IA/g; Tumor-to-kidney ([2]; 1 h p.i.): 0.59±0.08; Blood ([2]; 24 h p.i.): 0.33 ± 0.06 % IA/g; Kidneys ([2]; 24 h p.i.): 18.2 ± 3.06 % IA/g; Liver ([2]; 24 h p.i.): 0.37 ± 0.04 % IA/g; Lung ([2]; 24 h p.i.): 0.39 ± 0.09 % IA/g; Muscle ([2]; 24 h p.i.): 0.07 ± 0.02 % IA/g; Salivary glands ([2]; 24 h p.i.): 0.21 ± 0.04 % IA/g; Spleen ([2]; 24 h p.i.): 0.46 ± 0.10 % IA/g; Stomach ([2]; 24 h p.i.): 0.12 ± 0.03 % IA/g; Tumor-to-blood ([2]; 24 h p.i.): 198 ± 32.6; Tumor-to-kidney ([2]; 24 h p.i.): 3.56 ± 0.34; Tumor-to-liver ([2]; 24 h p.i.): 196 and 196 ± 44.4; PC-3 flu Tumor ([2]; 24 h p.i.): 0.38 ± 0.05 % IA/g; PC-3 PIP Tumor ([2]; 24 h p.i.): 84.2±14.9 % IA/g
CC(C)Cc1ccc(C(C)C(=O)NCCCCC(NC(=O)CN2CCN(CC(=O)O)CCN(CC(=O)O)CCN(CC(=O)O)CC2)C(=O)NCC2CCC(C(=O)NC(Cc3ccc4ccccc4c3)C(=O)NCCCCC(NC(=O)NC(CCC(=O)O)C(=O)O)C(=O)O)CC2)cc1 (stereo not shown) [^177Lu-Ibu-PSMA, metal not drawn]	33%	5.96 ± 1.53 % IA/g	1.01 ± 0.18 % IA/g	2.28 ± 0.68 % IA/g	1.00 ± 0.27 % IA/g	32.5 ± 0.86 % IA/g	2.77 ± 0.43 % IA/g	3.72 ± 0.73 % IA/g	0.97 ± 0.37 % IA/g	1.66 ± 0.36 % IA/g	1.76 ± 0.23 % IA/g	0.79 ± 0.26 % IA/g	14.1 ± 2.25	2.60 ± 0.08	29.7 ± 3.11	2.19 ± 0.52 % IA/g	81.3±6.28 % IA/g	0.20 ± 0.04 % IA/g	0.33 ± 0.06 % IA/g	0.23 ± 0.04 % IA/g	Blood ([2]; 24 h p.i.): 0.58 ± 0.09 % IA/g; Kidneys ([2]; 24 h p.i.): 16.5 ± 1.48 % IA/g; Liver ([2]; 24 h p.i.): 0.91 ± 0.12 % IA/g; Lung ([2]; 24 h p.i.): 0.62 ± 0.12 % IA/g; Muscle ([2]; 24 h p.i.): 0.12 ± 0.04 % IA/g; Salivary glands ([2]; 24 h p.i.): 0.34 ± 0.07 % IA/g; Spleen ([2]; 24 h p.i.): 0.68 ± 0.15 % IA/g; Stomach ([2]; 24 h p.i.): 0.23 ± 0.02 % IA/g; Tumor-to-blood ([2]; 24 h p.i.): 149 ± 16.7; Tumor-to-kidney ([2]; 24 h p.i.): 5.36 ± 0.73; Tumor-to-liver ([2]; 24 h p.i.): 95.4 ± 10.6; PC-3 flu Tumor ([2]; 24 h p.i.): 0.58 ± 0.19 % IA/g; PC-3 PIP Tumor ([2]; 24 h p.i.): 86.8±18.0 % IA/g and 86.9 ± 18.0 % IA/g
CC(C)Cc1ccc(C(C)C(=O)NC(CC(N)=O)C(=O)NCCCCC(NC(=O)CN2CCN(CC(=O)O)CCN(CC(=O)O)CCN(CC(=O)O)CC2)C(=O)NCC2CCC(C(=O)NC(Cc3ccc4ccccc4c3)C(=O)NCCCCC(NC(=O)NC(CCC(=O)O)C(=O)O)C(=O)O)CC2)cc1 (stereo not shown) [^177Lu-Ibu-N-PSMA, metal not drawn]	12%	3.58 ± 1.39 % IA/g	0.56 ± 0.22 % IA/g	1.23 ± 0.61 % IA/g	0.50 ± 0.18 % IA/g	27.1 ± 8.37 % IA/g	1.27 ± 0.55 % IA/g	2.20 ± 0.95 % IA/g	0.47 ± 0.19 % IA/g	0.94 ± 0.38 % IA/g	1.40 ± 0.75 % IA/g	0.51 ± 0.23 % IA/g	20.1 ± 6.22	2.48 ± 0.11	18.2 ± 2.70	1.15 ± 0.52 % IA/g	65.4 ± 15.6 % IA/g	0.08 ± 0.02 % IA/g	0.12 ± 0.03 % IA/g	0.09 ± 0.02 % IA/g	Kidneys ([2]; 24 h p.i.): 8.02±1.13 % IA/g; Liver ([2]; 24 h p.i.): 0.32 ± 0.05 % IA/g; Lung ([2]; 24 h p.i.): 0.24 ± 0.06 % IA/g; Muscle ([2]; 24 h p.i.): 0.06 ± 0.02 % IA/g; Salivary glands ([2]; 24 h p.i.): 0.57 ± 0.35 % IA/g; Spleen ([2]; 24 h p.i.): 0.24 ± 0.06 % IA/g; Stomach ([2]; 24 h p.i.): 0.17 ± 0.09 % IA/g; Tumor-to-blood ([2]; 24 h p.i.): 227 ± 41.7; Tumor-to-kidney ([2]; 24 h p.i.): 6.90 ± 2.43; Tumor-to-liver ([2]; 24 h p.i.): 182 and 182 ± 52.6; PC-3 flu Tumor ([2]; 24 h p.i.): 0.23 ± 0.01 % IA/g; PC-3 PIP Tumor ([2]; 24 h p.i.): 58.0 ± 21.0 % IA/g
